Assay results as given in patent US12630501B2, “Anti-fibrotic compounds and use thereof” (HADASIT MEDICAL RESEARCH SERVICES AND DEVELOPMENT LTD., priority 2019, dated 2026).
“And” between values parts separate entries of the source, which are not always exact repeats. Equal entries are not always repeated.

How the values were obtained:
Type in all cases: cell-based, human
FLIP = FLIP protein by Western blot and flow cytometry in IPF-lung myofibroblasts; conditions: 16 h
Description: (§1) Human lung myofibroblasts Differentiated fibroblasts from IPF-lungs and controls from patient lung biopsies performed for tumor diagnosis were obtained under a protocol detailed in Wallach-Dayan et al., J. Autoimmun. 59: 67-76, 2015. LL 97A (AlMy) (ATCC® CCL-191™)-IPF-lung, and LL 24 (ATCC® CCL-151™)-normal lung fibroblast cell lines were used.
FLIP protein in lung myofibroblasts Standard WB and flow cytometry were performed as described in Cohen et al., Am. J. Respir. Cell Mol. Biol. 40: 231-238, 2009.
(§2) FLIP downregulation from an OD of 1.85 to 0.49 (about 3.5-fold) was detected in WB (FIG. 4F), and a […] from a mean fluorescence intensity (MFI)=10^3 to only 10^1 was detected with flow cytometry (FIG. 4G). Thus, SIRT1-mediated Ku70-deacetylation stabilizes IPF-lung myofibroblast FLIP via Ku70/FLIP complex. This effect of CMH on Ku70 further disrupts Ku70/FLIP complex and destabilizes FLIP in IPF-lung myofibroblasts.
(§3) IPF cell line ATCC-191 (0.5×10^6), were exposed in culture (10% DMEM) to a compound of Formula 6 (1 or 3 μM) vs. 4% DMSO (vehicle) for 16 h. Ku70 immunoprecipitation with subsequent pan-acetyl (FIG. 8A) and immunoblots of Ku70 with anti-Ku70 mAb (FIG. 8B) or FLIP with anti-FLIP mAb (FIG. 8C) were measured. […] IPF-lung myofibroblasts decreased FLIP expression from an OD of 1.00 to 0.51 (about twofold, FIG. 8C).
IPF cell line ATCC-191 (0.5×10^6), were exposed in culture (10% DMEM) to a compound of Formula 12 (1 μM), vs. 4% DMSO (vehicle) for 16 h. Immunoblots of FLIP with anti-FLIP mAb were performed (FIG. 9). […] Thus, the compound of Formula 12 attenuates FLIP stabilization in IPF-lung myofibroblast.

Ku70 = Ku70 immunoprecipitation with pan-acetyl / Ku70 immunoblot in IPF-lung myofibroblasts
Description: as §1
Immunoprecipitation and immunoblotting Standard protocols were performed as described in Golan-Gerstl et al., Am. J. Respir. Cell Mol. Biol. 47: 271-279, 2012.
as §2, §3

IPF cell line ATCC-191 = test: Caspase-3 cleaved vs. uncleaved immunoblot (direct cytotoxicity); conditions: 72 h
Description: IPF cell line ATCC-191 (0.5×10^6), were exposed in culture (10% DMEM) to a compound of Formula 6 (0.1-30 μM) vs. 4% DMSO (vehicle) for 72 h. Cells were lysed and immunoblots of caspase-3 cleaved vs. uncleaved were performed. […] Lower concentrations of a compound of Formula 6 treated cells even decreased their ratio indicating no toxicity of the analogue at these concentrations.

COc1ccc(OCCCCC(=O)NO)cc1 [Formula 12]
Decrease of FLIP levels (FLIP; Formula 12 1 μM): about twofold | FLIP levels, optical density ratio to GAPDH (OD) (FLIP; Formula 12 1 μM, ATCC-191, vehicle 9.5, 13.3 and 8.4): 4.7 OD and 3.7 OD and 4.8 OD

O=C(CCCCOc1ccc2ccccc2c1)NO [Formula 6]
Increase of Ku70 acetylation (Ku70; Formula 6 1 μM, 16 h): about 80 fold | Ku70 levels (anti-Ku70 immunoblot) (Ku70; Formula 6 1 μM, 16 h): without changing | Ku70 acetylation, optical density ratio to GAPDH (OD), pan-acetyl IB of Ku70 IP (Ku70; Formula 6 1 μM, 16 h, ATCC-191, vehicle 0.007): 0.55 OD | Inhibition of Ku70-deacetylation compared with CMH (Ku70; IPF-lung myofibroblasts): to a greater extent than CMH | Decrease of FLIP expression (FLIP; Formula 6 1 or 3 μM): about twofold | FLIP expression OD (anti-FLIP immunoblot) (FLIP; Formula 6 1 or 3 μM, ATCC-191, vehicle 1.00): 0.51 OD | Cleaved caspase-3 (IPF cell line ATCC-191; 0.1 μM): 7.5 | Cleaved/Uncleaved caspase-3 (IPF cell line ATCC-191; 0.1 μM): 0.27 | Uncleaved caspase-3 (IPF cell line ATCC-191; 0.1 μM): 27.37 | Cleaved caspase-3 (IPF cell line ATCC-191; 0.3 μM): 11.66 | Cleaved/Uncleaved caspase-3 (IPF cell line ATCC-191; 0.3 μM): 0.18 | Uncleaved caspase-3 (IPF cell line ATCC-191; 0.3 μM): 65.84 | Cleaved caspase-3 (IPF cell line ATCC-191; 1 μM): 27.59 | Cleaved/Uncleaved caspase-3 (IPF cell line ATCC-191; 1 μM): 0.46 | Uncleaved caspase-3 (IPF cell line ATCC-191; 1 μM): 60.57 | Cleaved caspase-3 (IPF cell line ATCC-191; 3 μM): 81.78 | Cleaved/Uncleaved caspase-3 (IPF cell line ATCC-191; 3 μM): 1.10 | Uncleaved caspase-3 (IPF cell line ATCC-191; 3 μM): 74.31 | Cleaved caspase-3 (IPF cell line ATCC-191; 10 μM): 112.38 | Cleaved/Uncleaved caspase-3 (IPF cell line ATCC-191; 10 μM): 1.43 | Uncleaved caspase-3 (IPF cell line ATCC-191; 10 μM): 78.84 | Cleaved caspase-3 (IPF cell line ATCC-191; 30 μM): 93.19 | Cleaved/Uncleaved caspase-3 (IPF cell line ATCC-191; 30 μM): 2.49 | Uncleaved caspase-3 (IPF cell line ATCC-191; 30 μM): 37.4 | Direct cytotoxic effects on cells (IPF cell line ATCC-191; 0.1-30 μM, in the absence of Fas): does not exert direct cytotoxic effects
